Data as given in patent US20040254229A1, “Use of glucose uptake enhancer for reducing apoptosis” (SmithKline Beecham p.l.c. and SmithKline Beecham …, priority 1998, published 2004).

What was measured:
[1] = system: isolated working hearts from male Wistar rats; assay: Isolated working hearts from normal male Wistar rats: ventricular function, zero-flow ischaemia and re-perfusion; set-up: species or system rat
Protocol: Test Systems: Male Wistar rats (Charles River; St Aubin lès Elbeuf, France), with a body weight ranging from 260 to 280 g were housed on a 12h/12h light-dark cycle with access to water and standard rat chow ad libitum. An acclimatisation period of at least one week was allowed prior to experiment.
(§1) Perfusion of isolated hearts: Rats were anaesthetized using thiopental sodium (50 mg/kg body weight intraperitoneally). Hearts from normoglycaemic and one-month STZ-induced diabetic rats, were quickly removed and immersed in ice-cold buffer to produce an immediate cessation of contractility. The aorta was dissected free and then mounted onto a cannula attached to a perfusion apparatus. Retrograde perfusion of the heart was started for 10 min by the Langendorff method and then switched to perfusion using the working-heart technique. […] The perfusate was not recirculated. Preload was held at a pressure of 15 cm H2O and afterload, as well as coronary perfusion pressure, were kept constant at 80 cm H2O.
(§2) Aortic and coronary flows ([…]) were measured by timed collection. Cardiac output ([…]) was derived from the sum of the aortic and coronary flows. Stroke volume (ml/beat) was derived by dividing cardiac output by heart rate.
(§3) Induction of global ischaemia and re-perfusion: Total ischaemia was initiated by clamping the left atrium and the aortic perfusion tubes and reducing coronary flow to zero for 30 minutes. The hearts were then re-perfused at 37° C. in working heart mode and recovery of ventricular function was followed for 30 minutes.
(§4) Data Handling & Analysis: The data are presented as the mean±SEM. Statistical significance of differences was determined using Student's t-test. Differences with p<0.05 were considered to be statistically significant.

[2] = system: isolated working hearts from STZ-diabetic rats; assay: Isolated working hearts from STZ-diabetic male Wistar rats: ventricular function, zero-flow ischaemia and re-perfusion; set-up: species or system rat
Protocol: A solution of streptozotocin (STZ commercially available) was prepared in citrate buffer (40 mg/ml).
Induction of experimental diabetes: Male Wistar rats weighing between 300 and 320 g were fasted overnight and made diabetic by a single intravenous injection of STZ, 40 mg/kg body weight. The development of diabetes and its persistence were monitored by serial quantitative measurements of glucose in the urine with reagent strips. On the day of the experiment, the severity of diabetes was assessed by measuring glucose concentrations from blood samples collected at the time of heart excision. Only rats with plasma glucose levels exceeding 20 mM were considered diabetic and included in these experiments.
as §1, §2, §3, §4

[3] = baseline ventricular function, normal male Wistar rats, 1 μM in the perfusate pre-ischaemia, mean±SEM
[4] = baseline ventricular function, STZ-diabetic male Wistar rats, 1 μM in the perfusate pre-ischaemia, n = 6, mean±SEM

Compound: CN(CCOc1ccc(CC2SC(=O)NC2=O)cc1)c1ccccn1 (stereo not drawn) [Compound (I), 5-[4-[2-(N-methyl-N-(2-pyridyl)amino)ethoxy]benzyl]thiazolidine-2,4-dione]
- Aortic Flow [1, 3]: 34.0 ± 0.7 mL/min
- Cardiac Output [1, 3]: 51 ± 1 mL/min
- Coronary Flow [1, 3]: 16.6 ± 0.6 mL/min
- Heart Rate [1, 3]: 317 ± 15 beats/min
- Peak Systolic Pressure [1, 3]: 73 ± 1 mmHg
- protective properties in hearts subjected to zero-flow ischaemia in vitro ([1]; normal rat hearts): protective properties of rapid onset
- Aortic Flow [2, 4]: 42.3 ± 1.5 mL/min
- Cardiac Output [2, 4]: 54.4 ± 1.7 mL/min
- Coronary Flow [2, 4]: 12.1 ± 0.4 mL/min
- Heart Rate [2, 4]: 225 ± 14 beats/min
- Peak Systolic Pressure [2, 4]: 76 ± 2 mmHg
- protective properties in hearts subjected to zero-flow ischaemia in vitro ([2]; diabetic rat hearts): protective properties of rapid onset
